Laboratory results as given in patent US10947252B2, “Inhibitors of KEAP1-Nrf2 protein-protein interaction” (Janssen Pharmaceutica NV, priority 2018, dated 2021).

Experiments:
[1] = test system: Glo-Response ARE-luc2P HEK293 cell line; test: ARE luciferase reporter cell-based assay; details: Homo sapiens, HEK293, 24 h, average of results obtained;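 note: luciferase signal tracks Nrf2 activation of the ARE once compounds disrupt KEAP1-Nrf2 binding, read with One-Glo reagent, DMSO serving as low control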
[2] = molecular target: Kelch domain of human KEAP1 (321-624 aa) (Homo sapiens (Human), UniProt Q14145); test: KEAP1 KELCH ThermoFluor binding assay; details: KEAP Kelch […], 1,8-ANS, pH 7.0, average of results obtained, read-out: Tf Kd;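 note: Ligand-induced melting temperature shift of E. coli-expressed KEAP1 Kelch protein, Kd estimated from concentration-response curves of ΔTm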
Chain of Kelch domain of human KEAP1 (321-624 aa) (Q14145 321-624): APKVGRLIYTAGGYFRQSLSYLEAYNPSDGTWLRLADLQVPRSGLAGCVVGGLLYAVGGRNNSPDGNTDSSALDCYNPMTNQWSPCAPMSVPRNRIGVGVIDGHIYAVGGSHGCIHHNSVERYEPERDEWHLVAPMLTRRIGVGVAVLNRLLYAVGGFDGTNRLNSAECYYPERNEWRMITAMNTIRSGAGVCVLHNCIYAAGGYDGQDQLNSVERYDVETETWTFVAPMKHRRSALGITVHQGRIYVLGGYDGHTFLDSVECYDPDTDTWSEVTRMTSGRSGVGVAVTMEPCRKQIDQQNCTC

SMILES	Kd [2] [nM]	EC50 [1] [nM]
Cc1ccc([C@H](c2ccn3c(C(F)(F)F)nnc3c2C)C(C)(C)C(=O)O)cc1CN1CC2(CCNCC2)Oc2ncccc2S1(=O)=O (single isomer, unassigned) [Example 337, (*R)-3-(3-((1′,1′-Dioxidospiro[piperidine-4,4′-pyrido[2,3-b][1,4,5]oxathiazepin]-2′(3′H)-yl)methyl)-4-methylphenyl)-2,2-dimethyl-3-(8-methyl-3-(trifluoromethyl)-[1,2,4]triazolo[4,3-a]pyridin-7-yl)propanoic Acid]	> 10000	> 20
Cc1cnc2c(c1)S(=O)(=O)N(Cc1cc([C@H](c3ccn4c(C(F)(F)F)nnc4c3C)C(C)(C)C(=O)O)ccc1C)CC1(CCNCC1)O2 (single isomer, unassigned) [Example 341, (*R)-2,2-Dimethyl-3-(4-methyl-3-((8′-methyl-1′,1′-dioxidospiro[piperidine-4,4′-pyrido[2,3-b][1,4,5]oxathiazepin]-2′(3′H)-yl)methyl)phenyl)-3-(8-methyl-3-(trifluoromethyl)-[1,2,4]triazolo[4,3-a]pyridin-7-yl)propanoic Acid]	18800	> 20
Cc1cnc2c(c1)S(=O)(=O)N(Cc1cc([C@@H](c3ccn4c(C(F)(F)F)nnc4c3C)C(C)(C)C(=O)O)ccc1C)CC1(CNC1)O2 (single isomer, unassigned) [Example 342, (*S)-2,2-Dimethyl-3-(4-methyl-3-((8′-methyl-1′,1′-dioxidospiro[azetidine-3,4′-pyrido[2,3-b][1,4,5]oxathiazepin]-2′(3′H)-yl)methyl)phenyl)-3-(8-methyl-3-(trifluoromethyl)-[1,2,4]triazolo[4,3-a]pyridin-7-yl)propanoic Acid]	< 1	5.6
Cc1cnc2c(c1)S(=O)(=O)N(Cc1cc([C@H](c3ccn4c(C(F)(F)F)nnc4c3C)C(C)(C)C(=O)O)ccc1C)CC1(CNC1)O2 (single isomer, unassigned) [Example 343, (*R)-2,2-Dimethyl-3-(4-methyl-3-((8′-methyl-1′,1′-dioxidospiro[azetidine-3,4′-pyrido[2,3-b][1,4,5]oxathiazepin]-2′(3′H)-yl)methyl)phenyl)-3-(8-methyl-3-(trifluoromethyl)-[1,2,4]triazolo[4,3-a]pyridin-7-yl)propanoic Acid]	32200	1570
Cc1ccc([C@@H](c2ccn3c(C(F)F)nnc3c2C)C(C)(C)C(=O)O)nc1CN1CC2(CCOCC2)Oc2nc(OCCN3CCCCC3)c(C)cc2S1(=O)=O (single isomer, unassigned) [Example 354, (*S)-3-(3-(Difluoromethyl)-8-methyl-[1,2,4]triazolo[4,3-a]pyridin-7-yl)-2,2-dimethyl-3-(5-methyl-6-((8′-methyl-1′,1′-dioxido-7′-(2-(piperidin-1-yl)ethoxy)-2,3,5,6-tetrahydrospiro[pyran-4,4′-pyrido[2,3-b][1,4,5]oxathiazepin]-2′(3′H)-yl)methyl)pyridin-2-yl)propanoic Acid]	< 1	20.6
Cc1ccc([C@H](c2ccn3c(C(F)F)nnc3c2C)C(C)(C)C(=O)O)nc1CN1CC2(CCOCC2)Oc2nc(OCCN3CCCCC3)c(C)cc2S1(=O)=O (single isomer, unassigned) [Example 355, (*R)-3-(3-(Difluoromethyl)-8-methyl-[1,2,4]triazolo[4,3-a]pyridin-7-yl)-2,2-dimethyl-3-(5-methyl-6-((8′-methyl-1′,1′-dioxido-7′-(2-(piperidin-1-yl)ethoxy)-2,3,5,6-tetrahydrospiro[pyran-4,4′-pyrido[2,3-b][1,4,5]oxathiazepin]-2′(3′H)-yl)methyl)pyridin-2-yl)propanoic Acid]	3070	1140
Cc1ccc([C@H](c2ccn3c(C(F)F)nnc3c2C)C(C)(C)C(=O)O)nc1CN1CC2(CC2)Oc2nc(OCCN3CCCCC3)c(C)cc2S1(=O)=O (single isomer, unassigned) [Example 357, (*R)-3-(3-(difluoromethyl)-8-methyl-[1,2,4]triazolo[4,3-a]pyridin-7-yl)-2,2-dimethyl-3-(5-methyl-6-((8′-methyl-1′,1′-dioxido-7′-(2-(piperidin-1-yl)ethoxy)spiro[cyclopropane-1,4′-pyrido[2,3-b][1,4,5]oxathiazepin]-2′(3′H)-yl)methyl)pyridin-2-yl)propanoic Acid]	< 1	452

Further lines, with some results ahead:

Kd [2] [nM]	SMILES	EC50 [1] [nM]
2440	Cc1cnc2c(c1)S(=O)(=O)N(Cc1nc([C@H](c3ccn4c(C(F)F)nnc4c3C)C(C)(C)C(=O)O)ccc1C)CC1(CC1)O2 (single isomer, unassigned) [Example 335, (*R)-3-(3-(Difluoromethyl)-8-methyl-[1,2,4]triazolo[4,3-a]pyridin-7-yl)-2,2-dimethyl-3-(5-methyl-6-((8′-methyl-1′,1′-dioxidospiro[cyclopropane-1,4′-pyrido[2,3-b][1,4,5]oxathiazepin]-2′(3′H)-yl)methyl)pyridin-2-yl)propanoic Acid]	4620
< 1	Cc1ccc([C@@H](c2ccn3c(C(F)(F)F)nnc3c2C)C(C)(C)C(=O)O)cc1CN1CC2(CNC2)Oc2ncccc2S1(=O)=O (single isomer, unassigned) [Example 338, (*S)-3-(3-((1′,1′-Dioxidospiro[azetidine-3,4′-pyrido[2,3-b][1,4,5]oxathiazepin]-2′(3′H)-yl)methyl)-4-methylphenyl)-2,2-dimethyl-3-(8-methyl-3-(trifluoromethyl)-[1,2,4]triazolo[4,3-a]pyridin-7-yl)propanoic Acid]	13.1
80200	Cc1ccc([C@H](c2ccn3c(C(F)(F)F)nnc3c2C)C(C)(C)C(=O)O)cc1CN1CC2(CNC2)Oc2ncccc2S1(=O)=O (single isomer, unassigned) [Example 339, (*R)-3-(3-((1′,1′-Dioxidospiro[azetidine-3,4′-pyrido[2,3-b][1,4,5]oxathiazepin]-2′(3′H)-yl)methyl)-4-methylphenyl)-2,2-dimethyl-3-(8-methyl-3-(trifluoromethyl)-[1,2,4]triazolo[4,3-a]pyridin-7-yl)propanoic Acid]	6320
1.24	Cc1cnc2c(c1)S(=O)(=O)N(Cc1cc([C@@H](c3ccn4c(C(F)(F)F)nnc4c3C)C(C)(C)C(=O)O)ccc1C)CC1(CCNCC1)O2 (single isomer, unassigned) [Example 340, (*S)-2,2-Dimethyl-3-(4-methyl-3-((8′-methyl-1′,1′-dioxidospiro[piperidine-4,4′-pyrido[2,3-b][1,4,5]oxathiazepin]-2′(3′H)-yl)methyl)phenyl)-3-(8-methyl-3-(trifluoromethyl)-[1,2,4]triazolo[4,3-a]pyridin-7-yl)propanoic Acid]	629
3550	Cc1ccc([C@@H](c2ccn3c(C(F)F)nnc3c2C)C(C)(C)C(=O)O)nc1CN1CC2(CC2)Oc2nc(OCCN3CCCCC3)c(C)cc2S1(=O)=O (single isomer, unassigned) [Example 356, (*S)-3-(3-(Difluoromethyl)-8-methyl-[1,2,4]triazolo[4,3-a]pyridin-7-yl)-2,2-dimethyl-3-(5-methyl-6-((8′-methyl-1′,1′-dioxido-7′-(2-(piperidin-1-yl)ethoxy)spiro[cyclopropane-1,4′-pyrido[2,3-b][1,4,5]oxathiazepin]-2′(3′H)-yl)methyl)pyridin-2-yl)propanoic Acid]	11.8
